Measurements published in paper PMC8948292, “Combining PEGylated mito-atovaquone with MCT and Krebs cycle redox inhibitors as a potential strategy to abrogate tumor cell proliferation” (Scientific Reports, 2022).
pIC50: −log10 of the molar value. Where two headings read alike, the source gives them in different places.

How the values were obtained:
Type in all cases: cell-based, human
[1] = test system: MiaPaCa-2 cells; assay: Cell proliferation (cell confluence), IncuCyte Live-Cell Analysis System; conditions: for pIC50: Homo sapiens; for Cell confluence (% of control): control ~90% confluence
Summary of the method: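 MiaPaCa-2 cells in DMEM with 10% FBS, plated at 1,000 cells/well in triplicate and adhered overnight, then treated with Mito-PEG-ATO analogs. Confluence imaged label-free over several days, increase in percent confluence serving as proliferation surrogate.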

[2] = test system: MiaPaCa-2 cells; assay: Intracellular oxidants: HPLC of hydroethidine (HE) oxidation products
Procedure: Hydroethidine (HE) or dihydroethidium was used as a fluorogenic probe to assess the cellular generation of superoxide and other peroxidatic oxidants[36],[37]. Cells were treated for 24 h with Mito-PEG5-ATO alone or in combination with AZD-3965 or CPI-613, followed by 1 h incubation with HE (10 µM). Cells were harvested and the cell pellet stored at − 80 °C until the day of high-performance liquid chromatography (HPLC) analysis. Sample preparation and HPLC analysis were performed as previously reported[32],[36]. 2-OH-E^+ was used as a specific marker for superoxide, and E^+-E^+ was used as a specific marker for intracellular one-electron oxidants[36],[37].
HE was purchased from Invitrogen (Carlsbad, CA). Stock solutions (20 mM and 5 mM, respectively) were prepared in deoxygenated DMSO (dimethyl sulfoxide) and stored at − 80 °C until use. Ethidium cation (bromide salt) was purchased from Sigma-Aldrich. The hydroxylated oxidation products from HE (2-OH-E^+) were prepared by reacting the probes with Fremy’s salt as previously described in detail[70],[71]. The dimeric products were prepared by reacting the probes with excess potassium ferricyanide, as detailed elsewhere. Synthesized standards of all oxidation products of HE were purified by HPLC. HPLC-based measurements of HE and its oxidation products were performed using an Agilent 1100 system equipped with absorption and fluorescence detectors and refrigerated autosampler (4 °C). The samples (50 µL) were injected into a reverse phase column (Phenomenex, Kinetex C18, 100 mm × 4.6 mm, 2.6 µm) equilibrated with 20% acetonitrile and 80% water containing 0.1% trifluoroacetic acid. The compounds were eluted by increasing the content of acetonitrile from 20 to 56% over 4.5 min at a flow rate of 1.5 mL/min. The absorption detector was used to measure 3,8-diamino-6-phenylphenanthridine (at 290 nm; retention time: 2.5 min), HE-E^+ (at 290 nm; retention time: 4.1 min), E^+-E^+ (at 290 nm; retention time: 4.3 min), and HE (at 370 nm; retention time: 1.6 min). A fluorescence detector (initial excitation at 358 nm and emission at 440 nm) was used to monitor HE (when present at low concentrations). At 2.3 min after injection, the fluorescence parameters were changed (excitation at 490 nm and emission at 567 nm) for sensitive detection of 2-OH-E^+ (retention time: 3.2 min) and E^+ (retention time: 3.3 min).

[3] = test system: MiaPaCa-2 cells; assay: Intracellular ATP, luciferase-based assay
Procedure: After seeding cells overnight at 2 × 10^4 per well in 96-well plates, cells were treated for 24 h. Intracellular ATP levels were determined in cell lysates using a luciferase-based assay per the manufacturer’s instructions (cat# FLAA, Sigma Aldrich, St. Louis, MO). In brief, the assay starts by rapidly adding an ATP assay mix solution (luciferase and luciferin solution, cat# FLAAM) to cell lysates. This is swirled briskly to mix, and the amount of light produced is immediately measured with a luminometer. The results were normalized to the total protein level measured in each well, as determined by the Bradford method (Bio-Rad Laboratories, Hercules, CA).

Cc1[nH]nc(C(F)(F)F)c1Cc1sc2c(c1C(=O)N1C[C@](C)(O)CO1)c(=O)n(C)c(=O)n2C(C)C [AZD-3965]
pIC50 ([1]; MIA PaCa-2, read-out: IC50 (cell proliferation) without Mito-PEG5-ATO): 3.56 | Inhibition of cell proliferation in combination with Mito-PEG5-ATO (combination index) ([1]; MiaPaCa-2 cells, combined with Mito-PEG5-ATO): synergistic | % changes of IC50 with vs without Mito-PEG5-ATO ([1]; MiaPaCa-2 cells, heat map Fig. 7d): 52.5% | Intracellular oxidant-induced HE-derived products, in combination with Mito-PEG5-ATO ([2]; 24 h, with Mito-PEG5-ATO 0.05 µM, AZD-3965 200 µM or CPI-613 200 µM): modest and additive increase | intracellular ATP level ([3]; AZD-3965 10 µM, Mito-PEG5-ATO 0 µM, 24 h treatment, mean n=4): 28.98 nmol ATP/mg protein | intracellular ATP level ([3]; AZD-3965 20 µM, Mito-PEG5-ATO 0 µM, 24 h treatment, mean n=4): 29.42 nmol ATP/mg protein | intracellular ATP level ([3]; AZD-3965 30 µM, Mito-PEG5-ATO 0 µM, 24 h treatment, mean n=4): 28.90 nmol ATP/mg protein | intracellular ATP level ([3]; AZD-3965 40 µM, Mito-PEG5-ATO 0 µM, 24 h treatment, mean n=4): 30.34 nmol ATP/mg protein | intracellular ATP level ([3]; AZD-3965 60 µM, Mito-PEG5-ATO 0 µM, 24 h treatment, mean n=4): 30.77 nmol ATP/mg protein | intracellular ATP level ([3]; AZD-3965 80 µM, Mito-PEG5-ATO 0 µM, 24 h treatment, mean n=4): 30.40 nmol ATP/mg protein | intracellular ATP level ([3]; AZD-3965 100 µM, Mito-PEG5-ATO 0 µM, 24 h treatment, mean n=4): 31.41 nmol ATP/mg protein | intracellular ATP level ([3]; AZD-3965 150 µM, Mito-PEG5-ATO 0 µM, 24 h treatment, mean n=4): 32.36 nmol ATP/mg protein | intracellular ATP level ([3]; AZD-3965 200 µM, Mito-PEG5-ATO 0 µM, 24 h treatment, mean n=4): 30.51 nmol ATP/mg protein | intracellular ATP level ([3]; AZD-3965 400 µM, Mito-PEG5-ATO 0 µM, 24 h treatment, mean n=4): 31.60 nmol ATP/mg protein | intracellular ATP level ([3]; AZD-3965 600 µM, Mito-PEG5-ATO 0 µM, 24 h treatment, mean n=4): 31.63 nmol ATP/mg protein

O=C1C(OCCOCCOCCOCCOCC[P+](c2ccccc2)(c2ccccc2)c2ccccc2)=C([C@H]2CC[C@H](c3ccc(Cl)cc3)CC2)C(=O)c2ccccc21.[Br-] [Mito-PEG5-ATO, [14-((3-(trans-4-(4-chlorophenyl)cyclohexyl)-1,4-dioxo-1,4-dihydronaphthalen-2-yl)oxy)-3,6,9,12-tetraoxatetradecyl]triphenylphosphonium bromide]
pIC50 ([1]; MIA PaCa-2, read-out: IC50, antiproliferative): 7.42 | Cell confluence (% of control) ([1]; MiaPaCa-2 cells, 0.003 µM): 94.98 % of control | Cell confluence (% of control) ([1]; MiaPaCa-2 cells, 0.01 µM): 93.81 % of control | Cell confluence (% of control) ([1]; MiaPaCa-2 cells, 0.03 µM): 74.87 % of control | Cell confluence (% of control) ([1]; MiaPaCa-2 cells, 0.05 µM): 41.88 % of control | Cell confluence (% of control) ([1]; MiaPaCa-2 cells, 0.1 µM): 7.64 % of control | Cell confluence (% of control) ([1]; MiaPaCa-2 cells, 0.2 µM): 4.52 % of control | Cell confluence (% of control) ([1]; MiaPaCa-2 cells, 0.3 µM): 4.07 % of control | Cell confluence (% of control) ([1]; MiaPaCa-2 cells, 0.5 µM): 3.75 % of control | Cell confluence (% of control) ([1]; MiaPaCa-2 cells, 1 µM): 3.53 % of control | Cell confluence (% of control) ([1]; MiaPaCa-2 cells, 3 µM): 2.64 % of control | Cell confluence (% of control) ([1]; MiaPaCa-2 cells, 10 µM): 2.40 % of control | HE oxidation products 2-OH-E+, E+ and E+-E+ ([2]; 24 h treatment, then HE 10 µM 1 h): slight but significant increase | Intracellular ATP levels ([3]; MiaPaCa-2 cells, 24 h, alone and with AZD-3965 or syrosingopine): not due to intracellular ATP depletion | intracellular ATP level ([3]; Mito-PEG5-ATO 0.02 µM, AZD-3965 0 µM, 24 h): 34.79 nmol ATP/mg protein | intracellular ATP level ([3]; Mito-PEG5-ATO 0.02 µM, syrosingopine 0 µM, 24 h): 33.08 nmol ATP/mg protein | intracellular ATP level ([3]; Mito-PEG5-ATO 0.04 µM, AZD-3965 0 µM, 24 h): 29.69 nmol ATP/mg protein | intracellular ATP level ([3]; Mito-PEG5-ATO 0.04 µM, syrosingopine 0 µM, 24 h): 29.16 nmol ATP/mg protein | intracellular ATP level ([3]; Mito-PEG5-ATO 0.06 µM, AZD-3965 0 µM, 24 h): 29.11 nmol ATP/mg protein | intracellular ATP level ([3]; Mito-PEG5-ATO 0.06 µM, syrosingopine 0 µM, 24 h): 28.90 nmol ATP/mg protein | intracellular ATP level ([3]; Mito-PEG5-ATO 0.08 µM, AZD-3965 0 µM, 24 h): 28.15 nmol ATP/mg protein | intracellular ATP level ([3]; Mito-PEG5-ATO 0.08 µM, syrosingopine 0 µM, 24 h): 27.83 nmol ATP/mg protein | intracellular ATP level ([3]; Mito-PEG5-ATO 0.1 µM, AZD-3965 0 µM, 24 h): 27.57 nmol ATP/mg protein | intracellular ATP level ([3]; Mito-PEG5-ATO 0.1 µM, syrosingopine 0 µM, 24 h): 27.64 nmol ATP/mg protein | intracellular ATP level ([3]; Mito-PEG5-ATO 0.15 µM, AZD-3965 0 µM, 24 h): 28.14 nmol ATP/mg protein | intracellular ATP level ([3]; Mito-PEG5-ATO 0.15 µM, syrosingopine 0 µM, 24 h): 28.11 nmol ATP/mg protein | intracellular ATP level ([3]; Mito-PEG5-ATO 0.5 µM, AZD-3965 0 µM, 24 h): 26.75 nmol ATP/mg protein | intracellular ATP level ([3]; Mito-PEG5-ATO 0.5 µM, syrosingopine 0 µM, 24 h): 26.12 nmol ATP/mg protein
